Results reported in patent US20180311191A1, “NEW COMBINATION THERAPIES FOR TREATING NEUROLOGICAL DAMAGE” (UNIVERSITAT AUTONOMA DE BARCELONA, priority 2015, published 2018).
Read-outs that look alike come from different tables or passages of the source.

Columns and labels:
motoneurons (MNs) [1] = details: cited from earlier work
[2] = tested on: NSC-34 motoneuron-like cells; test: MTT cell survival assay of NSC-34 motoneuron-like cells under tunicamycin-induced ER stress; format: cell-based, mouse; details: for MTT assay (% sample vs control), Mean: concomitant TN 1 μg/mL, 24 h, C1 = 0.11 mM acamprosate calcium + 4 μM ribavirin, single drugs 0.11 mM acamprosate calcium, 4 μM ribavirin, 10 μM PRE084; for Corrected Response (Response less control 62.956%) / Response (% neuronal cell survival after ER stress): tunicamycin, MTT
Description: For the in vitro studies, we assessed cell survival of the NSC-34 motoneuron-like cells with a conventional MTT-based assay. NSC-34 is a hybrid cell line produced by fusion of neuroblastoma with mouse motoneuron-enriched primary spinal cord cells, which express properties characteristic of MNs, including the generation of action potentials, the presence of specific neurofilaments and acetylcholine signaling. […] Tunicamycin is a power that was dissolved in DMSO to 10 mg/ml final concentration and then diluted in Dulbeco's modified eagle medium (DMEM) medium at the final working solution indicated in figure legends. The rest of drugs, C1, Acamprosate calcium and Ribavirin were dissolved in water and then in DMEM medium at the final working solutions: 0.11 mM Acamprosate calcium (ACA), 4 μM Ribavirin (RIB) alone or in C1, at a final volume of 100 μI for MTT assays.
We assessed the neuroprotective effect of C1 (acamprosate calcium 0.11 mM+ribavirin 4 μM in 100 μl final volume) when added simultaneous to tunicamycin (TN) in the culture medium. We evaluated cell survival 24 h after the addition of toxin and therapeutic drugs performing an MTT conventional test.
In order to analyze the existence of possible additive neuroprotective effect between drugs, we determined the dose-effect relations of each individual drug (Acamprosate calcium 0.11 mM or Ribavirin 4 μM, both in 100 μI final volume) compared to equivalent doses for C1 (acamprosate calcium 0.11 mM+ribavirin 4 μM in 100 μI final volume).

motoneurons (MNs) [3] = test: Rat model of peripheral nerve root avulsion (RA model): MN counts and immunohistochemistry at L4-L5 spinal cord; format: in vivo; details: for effect on the neuroprotective effect (MN survival) exerted by C1: RA-injured animals treated with C1 concomitantly
From the text: For in vivo studies, a pre-clinical rat model of peripheral nerve root avulsion (RA model) was generated as previously described (see Penas C Cytoskeletal and activity-related changes in spinal motoneurons after root avulsion. Journal of Neurotrauma, 2009). Briefly, a midline skin incision was made at the level of the iliac crest, the right sciatic nerve was identified and the L4 and L5 spinal nerves were separated. A moderate traction was applied to produce extravertebral nerve root avulsion, leading to a retrograde degeneration of around 80% of the injured MNs within a month. The left roots were kept intact as control sham. We intratechally administered the vehicle (artificial cerebrospinal fluid (aCSF) [NaCl (124 mM), KCl (3 mM), NaHCO3 (26 mM), CaCl2/2H2O (2 mM), MgSO4/7H2O (1 mM), KH2PO4 (1.25 mM) and D-Glucose (10 mM)] or the positive control drug for neuroprotection (PRE084, 1-phenylcyclohexanecarboxylate hydrochloride, 1.7 μg/kg/day), C1 (Acamprosate calcium 96 μg/Kg/day (equivalent to 86.9 μg/Kg/day acamprosate free acid)+Ribavirin 0.48 μg/Kg/day) or acamprosate calcium (96 μg/Kg/day) (equivalent to 86.9 μg/Kg/day acamprosate free acid) alone and ribavirin (0.48 μg/Kg/day) alone. For this purpose, we used a programmable micro-infusion pump system (iPrecio, Primetech) to continuously perfuse the drugs into the animal CSF during 20 days from the following day after RA. […] experimental animal groups with RA were defined: one was treated with C1, another was treated with Pre084 (positive control), another was treated with Acamprosate calcium alone (A), another was treated with Ribavirin alone (B), another was treated with vehicle alone, another was left untreated (control). […] Images from microscope were digitally captured and analyzed using several plugins of the ImageJ Software.

[4] = acamprosate calcium alone, Dose DA 0.1X (1X = 0.11 mM)
[5] = acamprosate calcium alone, Dose DA 0.2X (1X = 0.11 mM)
[6] = acamprosate calcium alone, Dose DA 0.5X (1X = 0.11 mM)
[7] = acamprosate calcium alone, Dose DA 1X (0.11 mM)
[8] = ribavirin alone, Dose DB 0.1X (1X = 4 μM)
[9] = ribavirin alone, Dose DB 0.2X (1X = 4 μM)
[10] = ribavirin alone, Dose DB 0.5X (1X = 4 μM)
[11] = ribavirin alone, Dose DB 1X (4 μM)

Nc1nc2ccc(OC(F)(F)F)cc2s1 [riluzole]
neuroprotective effect (motoneurons (MNs) [1]; model of spinal root avulsion with reimplantation): maximum observed effect of neuroprotection
neuroprotective effect (motoneurons (MNs) [1]; models of root avulsion without reimplantation (Chew 2014)): no neuroprotective effect

CC(=O)NCCCS(=O)(=O)O [acamprosate calcium, 3-acetamidopropane-1-sulfonic acid]
MTT assay (% sample vs control), Mean ([2]; NSC-34 cells): 65.80%
Corrected Response (Response less control 62.956%) [2, 4]: 3.52%
Response (% neuronal cell survival after ER stress) [2, 4]: 66.475%
Corrected Response (Response less control 62.956%) [2, 5]: 2.96%
Response (% neuronal cell survival after ER stress) [2, 5]: 65.918%
Corrected Response (Response less control 62.956%) [2, 6]: 3.89%
Response (% neuronal cell survival after ER stress) [2, 6]: 66.849%
Corrected Response (Response less control 62.956%) [2, 7]: 2.46%
Response (% neuronal cell survival after ER stress) [2, 7]: 65.417%

O=C(OCCN1CCOCC1)C1(c2ccccc2)CCCCC1 [PRE084, 2-(4-Morpholinethyl)1 Phenylcyclohexanecarboxylate]
induction of MN survival (motoneurons (MNs) [1]; spinal root avulsion (Penas et al. 2011)): 50-60%
neuroprotection against TN stress compared with C1 ([2]; NSC-34 cells, TN 1 μg/mL, 10 μM PRE084, MTT): did not neuroprotect the cells as efficiently as C1
MTT assay (% sample vs control), Mean ([2]; NSC-34 cells): 68.81%
MN survival compared to the vehicle group (motoneurons (MNs) [3]; root avulsed rats, intrathecal infusion 20 days, 21 days post-injury, C1 = 96 μg/Kg/day acamprosate calcium + 0.48 μg/Kg/day ribavirin, PRE084 1.7 μg/kg/day): significantly different to the vehicle group

NCCCCNCCCN [spermidine]
effect on the neuroprotective effect (MN survival) exerted by C1 (motoneurons (MNs) [3]): did maintain it

NC(=O)C1CCCc2c1[nH]c1ccc(Cl)cc21 (centres unmarked) [EX-527, 6-chloro-2,3,4,9-tetrahydro-1H-carbazole-1-carboxamide]
effect on the neuroprotective effect (MN survival) exerted by C1 (motoneurons (MNs) [3]): abolished the neuroprotective effect

NC(=O)c1ncn([C@@H]2O[C@H](CO)[C@@H](O)[C@H]2O)n1 [ribavirin, 1-[(2R,3R,4S,5R)-3,4-dihydroxy-5-(hydroxymethyl)oxolan-2-yl]-1H-1,2,4-triazole-3-carboxamide]
MTT assay (% sample vs control), Mean ([2]; NSC-34 cells): 68.07%
Corrected Response (Response less control 62.956%) [2, 8]: 5.71%
Response (% neuronal cell survival after ER stress) [2, 8]: 68.662%
Corrected Response (Response less control 62.956%) [2, 9]: 7.93%
Response (% neuronal cell survival after ER stress) [2, 9]: 70.886%
Corrected Response (Response less control 62.956%) [2, 10]: 2.72%
Response (% neuronal cell survival after ER stress) [2, 10]: 65.676%
Corrected Response (Response less control 62.956%) [2, 11]: 5.69%
Response (% neuronal cell survival after ER stress) [2, 11]: 68.647%
